Assay results reported in patent US20240246902A1, “PRODRUGS OF 6-DIAZO-5-OXO-L-NORLEUCINE” (THE JOHNS HOPKINS UNIVERSITY, priority 2021, published 2024).
In brackets after ≈: the same amount, converted by molar mass. Read-outs that look alike come from different tables or passages of the source.

Tests used:
[1] = Plasma stability, mouse plasma; conditions: MP = Mouse Plasma
[2] = Metabolic stability in swine jejunum (gut) tissue homogenate; type: in vitro ADME; conditions: prodrug 20 μM, 37° C.
Procedure: (§1) The representative Compounds of the Disclosure were screened for metabolic stability in swine jejunum/liver tissue homogenates, following our previously reported methods (Zimmermann et al., J. Med. Chem., 61(9):3918-29 (2018); Tenora et al., J. Med. Chem., 62(7):3524-38 (2019)). In brief, freshly collected tissues were homogenized by probe sonication in 9× volume of 0.1 M potassium phosphate buffer over ice. Post homogenization, prodrugs were spiked at a concentration of 20 μM (in triplicate) and incubated in an orbital shaker at 37° C. for 60 min. Final concentration of DMSO in the incubations was 0.2% v/v. At each time point (0, 30, 60 min), 100 μL of sample was precipitated with 300 μL of methanol containing internal standard (IS; losartan: 0.5 μM). […] After centrifugation, 50 μL of supernatant was diluted with 50 μL of water, vortexed and submitted for analysis. Prodrug disappearance over time was measured using liquid chromatography tandem mass spectrometry (LC-MS/MS).
(§2) The processed supernatants were analyzed on a Thermo Scientific Vanquish UPLC system (equipped with Vanquish autosampler, pumps, and column compartment) hyphenated to TSQ Altis mass spectrometer (Thermo Fisher Scientific Inc., Waltham MA). […] The autosampler was operated at 4° C. […] Peak area ratios obtained from peak area counts of analyte and internal standard were used to measure the disappearance of prodrugs.

[3] = Plasma stability, plasma from CES1KO mice; conditions: CES1KO = Mouse Plasma from CES1KO mice
[4] = Plasma stability, human plasma; type: in vitro ADME; conditions: HP = Human Plasma
[5] = Metabolic stability in swine liver tissue homogenate; type: in vitro ADME; conditions: prodrug 20 μM, 37° C.
Procedure: as §1, §2

[6] = not told

Structure (SMILES)	Efflux (Efflux)	Plasma Stability (% remaining at 60 min) [1]	Gut Stability (% remaining at 60 min) [2] [%]	Plasma Stability (% remaining at 60 min) [3]	Liver stability (% remaining at 60 min) [5] [%]	Efflux [6]	further results
CC(=O)N[C@@H](Cc1c[nH]c2ccccc12)C(=O)N[C@@H](CCC(=O)C=[N+]=[N-])C(=O)OC(C)C [13′, reference compound]	23	0 ± 0 (MP) %	11 ± 1	94 ± 1 (ces1KO) %	–	–	solubility (Solubility): 240 µg/mL (≈ 0.544 mM); Plasma Stability (% remaining at 60 min) [4]: 96 ± 3 (HP) %
CC(C)(C)OC(=O)[C@H](CCC(=O)C=[N+]=[N-])NC(=O)c1cccnc1 [Compound 5j, tert-Butyl (S)-6-diazo-2-(nicotinamido)-5-oxohexanoate]	–	–	104 ± 0	–	78 ± 1	–	solubility (Solubility): ~4000 µg/mL (≈ 12 mM)
CC(C)OC(=O)[C@H](CCC(=O)C=[N+]=[N-])NC(=O)[C@H](Cc1c[nH]c2ccccc12)NC(=O)C(Cl)Cl [Compound 8n, Isopropyl (S)-6-diazo-2-((S)-2-(2,2-dichloroacetamido)-3-(1H-indol-3-yl)propanamido)-5-oxohexanoate]	49	–	–	69 ± 3 (ces1KO) %	0 ± 0	–	–
Cn1cc(C[C@H](NC(=O)C2CN3CCC2CC3)C(=O)N[C@@H](CCC(=O)C=[N+]=[N-])C(=O)OC(C)(C)C)c2ccccc21 (stereo partly drawn) [Compound 12c, tert-Butyl (2S)-6-diazo-2-((2S)-3-(1-methyl-1H-indol-3-yl)-2-(quinuclidine-3-carboxamido)propanamido)-5-oxohexanoate]	–	–	–	–	–	5.37	–
Cn1cc(C[C@H](NC(=O)OC2CN3CCC2CC3)C(=O)N[C@@H](CCC(=O)C=[N+]=[N-])C(=O)OC(C)(C)C)c2ccccc21 (stereo partly drawn) [Compound 12d, tert-Butyl (2S)-6-diazo-2-((2S)-3-(1-methyl-1H-indol-3-yl)-2-(((quinuclidin-3-yloxy)carbonyl)amino)propanamido)-5-oxohexanoate]	–	10 ± 2 (MP) %	–	88 ± 2 (Ces1KO) %	89 ± 1	–	Efflux (Efflux; not told): 65.59
Cn1cc(C[C@H](NC(=O)CCCNC(=O)C23CCN(CC2)CC3)C(=O)N[C@@H](CCC(=O)C=[N+]=[N-])C(=O)OC(C)(C)C)c2ccccc21 [Compound 12g, tert-Butyl (S)-6-diazo-2-((S)-3-(1-methyl-1H-indol-3-yl)-2-(4-(quinuclidine-4-carboxamido)butanamido)propanamido)-5-oxohexanoate]	–	–	–	–	–	1	–
CN(C)CC(=O)NCC(=O)N[C@@H](CCC(=O)C=[N+]=[N-])C(=O)OC(C)(C)C [Compound 14b, tert-Butyl (S)-6-diazo-2-(2-(2-(dimethylamino)acetamido)acetamido)-5-oxohexanoate]	33	73 ± 2 (MP) %	99 ± 2	–	90 ± 0	–	solubility (Solubility): ~10000 µg/mL (≈ 27.1 mM); Plasma Stability (% remaining at 60 min) [4]: 100 ± 5 (HP) %
CC(C)(C)OC(=O)[C@H](CCC(=O)C=[N+]=[N-])NC(=O)CNC(=O)C12CCN(CC1)CC2 [Compound 14d, tert-Butyl (S)-6-diazo-5-oxo-2-(2-(quinuclidine-4-carboxamido)acetamido)hexanoate]	–	–	–	–	–	1.48	–
CN(C)CC(=O)N[C@@H](Cc1ccccc1)C(=O)N[C@@H](CCC(=O)C=[N+]=[N-])C(=O)OC(C)(C)C [Compound 15a, tert-Butyl (S)-6-diazo-2-((S)-2-(2-(dimethylamino)acetamido)-3-phenylpropanamido)-5-oxohexanoate]	48	67 ± 1 (MP) %	90 ± 1	93 ± 1 (ces1KO MP) %	81 ± 2	–	–
CC(C)(C)OC(=O)[C@H](CCC(=O)C=[N+]=[N-])NC(=O)[C@H](Cc1ccccc1)NC(=O)C12CCN(CC1)CC2 [Compound 15b, tert-Butyl (S)-6-diazo-5-oxo-2-((S)-3-phenyl-2-(quinuclidine-4-carboxamido)propanamido)hexanoate]	–	–	–	–	–	7.31	–
CN(C)CC(=O)N[C@H](C(=O)N[C@@H](CCC(=O)C=[N+]=[N-])C(=O)OC(C)(C)C)c1ccccc1 [Compound 19a, tert-Butyl (S)-6-diazo-2-((S)-2-(2-(dimethylamino)acetamido)-2-phenylacetamido)-5-oxohexanoate]	–	–	–	–	82 ± 0	24.37	–
CN(C)CC(=O)N[C@@H](CCc1ccccc1)C(=O)N[C@@H](CCC(=O)C=[N+]=[N-])C(=O)OC(C)(C)C [Compound 20a, tert-Butyl (S)-6-diazo-2-((S)-2-(2-(dimethylamino)acetamido)-4-phenylbutanamido)-5-oxohexanoate]	61.35	60 ± 7 (MP) %	–	102 ± 2 (ces1KO) %	69 ± 1	–	–
CN(C)CC(=O)N[C@@H](Cc1ccc(C(F)(F)F)cc1)C(=O)N[C@@H](CCC(=O)C=[N+]=[N-])C(=O)OC(C)(C)C [Compound 23a, tert-Butyl (S)-6-diazo-2-((S)-2-(2-(dimethylamino)acetamido)-3-(4-(trifluoromethyl)phenyl)propanamido)-5-oxohexanoate]	32.76	79 ± 2 (MP) %	–	70 ± 14 (Ces1KO) %	72 ± 0	–	–
COCCOCCOC(=O)[C@H](CCC(=O)C=[N+]=[N-])NC(=O)[C@H](Cc1c[nH]c2ccccc12)NC(=O)CN(C)C [Compound 30b, 2-(2-Methoxyethoxy)ethyl (S)-6-diazo-2-((S)-2-(2-(dimethylamino)acetamido)-3-(1H-indol-3-yl)propanamido)-5-oxohexanoate]	–	–	–	–	–	–	Plasma Stability (% remaining at 60 min) [4]: 42 ± 1 (HP) %
CC(=O)N[C@@H](Cc1c[nH]c2ccccc12)C(=O)N[C@@H](CCC(=O)C=[N+]=[N-])C(N)=O [Compound 31a, (S)-2-((S)-2-Acetamido-3-(1H-indol-3-yl)propanamido)-6-diazo-5-oxohexanamide]	1	6 ± 1 (MP %	79 ± 7	–	58 ± 2	–	Plasma Stability (% remaining at 60 min) [4]: 100 ± 2 (HP) %
